“And” between values parts separate entries of the source, which are not always exact repeats. Identical values can stand only once. “Also recorded” adds a separate entry of the source. Like-named read-outs stand apart in the source and are kept apart here.
Tests used:
Hs-cFGE = biological target: T1, Hs-cFGE (Homo sapiens, UniProt Q8NBK3)
T1 sequence (Q8NBK3 with tags, fused parts or gaps isoform Q8NBK3-4): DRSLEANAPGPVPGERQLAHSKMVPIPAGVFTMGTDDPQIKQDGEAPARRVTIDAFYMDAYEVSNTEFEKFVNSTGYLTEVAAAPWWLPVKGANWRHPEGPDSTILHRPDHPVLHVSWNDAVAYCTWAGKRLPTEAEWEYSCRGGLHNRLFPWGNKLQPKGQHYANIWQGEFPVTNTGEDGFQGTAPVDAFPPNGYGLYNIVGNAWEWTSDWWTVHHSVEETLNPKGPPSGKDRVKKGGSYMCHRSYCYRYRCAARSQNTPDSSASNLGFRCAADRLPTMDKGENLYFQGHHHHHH

Sc-FGE = Sc-FGE (Streptomyces coelicolor, UniProt Q9F3C7); assay type: biochemical, S. coelicolor
Chain of Sc-FGE (Q9F3C7 whole entry): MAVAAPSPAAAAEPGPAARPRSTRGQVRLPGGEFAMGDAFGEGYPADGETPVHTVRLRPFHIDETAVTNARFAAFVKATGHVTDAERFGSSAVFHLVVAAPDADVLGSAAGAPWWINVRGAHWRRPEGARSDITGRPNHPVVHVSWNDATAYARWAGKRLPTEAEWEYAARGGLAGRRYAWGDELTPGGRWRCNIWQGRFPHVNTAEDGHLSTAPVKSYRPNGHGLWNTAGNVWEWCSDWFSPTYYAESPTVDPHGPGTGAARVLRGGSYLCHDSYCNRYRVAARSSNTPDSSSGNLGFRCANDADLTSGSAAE

CT-1.1 tagged Her2 = assay: 293 Expi transient co-transfection of FGE form and CT tagged antibody, conversion by mass-spectrometry; assay type: cell-based
Protocol: A 293 Expi transient co-transfection system (Life Technologies) was used for producing antibodies having a formylglycine residue at a selected site. The system produced high antibody titers (100-500 mg/L) with variable (10-95%) conversion. […] Expi 293F that were treated with or without 50 μM copper sulfate prior to transfection were transiently co-transfected in three independent experiments with expression plasmids for full-length human FGE with an N-terminal KDEL (SEQ ID NO:7) amino acid sequence (+KDEL) and CT tagged antibody at a ratio of 3:1 antibody:FGE DNA. The culture was harvested at 5-6 days post transfection, titer assessed by ELISA, and the protein was purified and conversion was measured by mass-spectrometry.
Expi 293F cells that were treated with or without 50 μM copper sulfate prior to transfection were transiently co-transfected with expression plasmids for various forms of human FGE (+KDEL, WT, myc-His) and CT tagged antibody at a ratio of 3:1 antibody:FGE DNA. The culture was harvested at 5 days post transfection, titer assessed by ELISA, the protein was purified and conversion was measured by mass-spectrometry.

FGE = biological target: T2, FGE (Homo sapiens, UniProt Q8NBK3); assay: FGE reaction mixtures with reductants or additives (product formation); assay type: biochemical; conditions: for rate of product formation: reducing agent used as stoichiometric reductant, in large excess
T2 construct: made in house
T2 sequence (Q8NBK3 with tags, fused parts or gaps isoform Q8NBK3-4): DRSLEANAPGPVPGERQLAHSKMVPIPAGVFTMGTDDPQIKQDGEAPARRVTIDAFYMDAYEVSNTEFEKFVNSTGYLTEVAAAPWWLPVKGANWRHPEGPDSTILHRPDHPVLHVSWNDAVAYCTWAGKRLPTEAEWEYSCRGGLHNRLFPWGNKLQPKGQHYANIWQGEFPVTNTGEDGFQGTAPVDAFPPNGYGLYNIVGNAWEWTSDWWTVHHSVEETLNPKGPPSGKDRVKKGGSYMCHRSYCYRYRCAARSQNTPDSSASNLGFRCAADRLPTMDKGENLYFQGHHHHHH
Protocol: The specific activity of FGE was measured using a discontinuous enzymatic activity assay. […] The rate of reaction was determined by integrating the peak areas at 215 nm of the substrate cysteine (Csub) and product (fGly) peptides on reversed-phase HPLC. […] Each aqueous reaction solution (120 μL) contained Csub (100 μM), FGE (0.1-1 μM), DTT (1 mM), and buffer (25 mM TEAM, pH 9). A single time course included 5 data points collected at evenly spaced intervals. The reaction was initiated upon addition of FGE stock solution and vortexing for 3 s. The reaction vial was vortexed at 1,500 RPM and 25° C. in a thermomixer R (Eppendorf). Time points were hand quenched by adding 20 μL of reaction mixture to 2 μL of 1 M HCl using a micropipettor. After completion of the reaction, each time point was analyzed by RP-HPLC (see below).
The conversion of Cys to fGly used a 2 H^+/2 e^− oxidation of the substrate Cys thiol as well as exchange of sulfur for oxygen. […] However, because O2 is a 4 H^+/4 e^− acceptor, a reducing agent was used to provide a second equivalent of 2 H^+ and 2 e^−, completing the reduction from O2 to 2 mol H2O. […] A mixture of reductant (DTT) and O2 was used for routine activity measurements.

[1] = as measured versus glutathione disulfide; cited from earlier work
human FGE = human FGE (Homo sapiens, UniProt Q8NBK3); assay: Effect of stimulators and inhibitors of oxidative phosphorylation on conversion; assay type: cell-based; conditions: DCA 0-50,000 μM; rotenone 0-15,000 nM with Cu^2+
Chain of human FGE (Q8NBK3 34-374): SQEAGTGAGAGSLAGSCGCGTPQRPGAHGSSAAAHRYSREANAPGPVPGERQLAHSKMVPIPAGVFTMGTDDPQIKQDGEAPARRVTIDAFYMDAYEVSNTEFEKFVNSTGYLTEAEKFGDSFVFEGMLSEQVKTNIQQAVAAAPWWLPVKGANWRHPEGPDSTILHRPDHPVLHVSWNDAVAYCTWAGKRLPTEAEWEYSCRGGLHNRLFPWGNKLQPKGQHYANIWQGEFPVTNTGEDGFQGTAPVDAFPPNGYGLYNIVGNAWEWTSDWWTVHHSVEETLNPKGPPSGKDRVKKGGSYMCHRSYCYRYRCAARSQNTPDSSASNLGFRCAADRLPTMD
Protocol: Experiments were performed to determine the effect of stimulators and inhibitors of oxidative phosphorylation on conversion efficiency for human FGE, as compared to Cu^2+.
(§2) Several experiments were run treating cells with DCA at several concentrations (DCA: 0 μM; 16 μM; 80 μM; 400 μM; 2000 μM; 10,000 μM; and 50,000 μM) and treating cells with Cu^2+ (copper sulfate) and rotenone (Rotenone: 0 nM; 5 nM; 24 nM; 120 nM; 600 nM; 3000 nM; and 15,000 nM) at several concentrations. Cells were plated and 10 μL of DCA or rotenone was added for a 4 hour treatment. Cells were equilibrated to room temperature 100 μL/well of Cell titerglo reagent (Promega) was added to each well. The plates were shaken of 2 min, incubated at room temperature for 10 min, and then read on a plate reader.

ATP production = ATP production dose response (Cell titerglo, 4 hour treatment); assay type: cell-based
Protocol: as §2

[2] = tested on: IgG containing the aldehyde tag; assay: In vitro conversion of intact mAb with FGE, fGly by LC-MRM/MS; assay type: biochemical
Protocol: DTT (20 mM) was added to a solution of mAb (20 μg) in buffered aqueous solution (25 mM NH4HCO3) to a final volume of 20 μL. The tube containing the sample was incubated at 37° C. for 15 min at 1500 RPM. Then, HCl (50 mM) was added to the solution and the tube was vortexed until mixed. Next, ammonium bicarbonate (100 mM) was added to the solution and the tube was vortexed until mixed. Trypsin (1 μg) and iodoacetamide (50 mM) were added, and the tube was incubated at 37° C. and 1500 RPM for 60 min in the dark. Finally, sodium citrate (150 mM, pH 5.5) and methoxylamine (100 mM) were added to the solution, and the tube was incubated at 37° C. for 16 h. The processed sample was then analyzed by LC-MRM/MS. The MRM transitions included modifications of the Cys-containing peptide including: cysteine, cysteine modified with iodoacetamide, formylglycine, formylglycine hydrate (including loss of water in the collision cell), and formylglycine methyl oxime. The abundance of each species was defined by its 5 most intense precursor/product ion pairs, which were integrated to give the total signal and relative fractions of each component. In the optimized digestion and capping procedure described above, unreacted Cys, fGly, or fGly-hydrate above background was not detected, observing only carboxyacetamidomethyl Cys (CAM) and the methyl oxime of fGly (MeOx). […]

[3] = tested on: 14 amino acid peptide ALCTPSRGSLFTGR (SEQ ID NO:8); assay: Discontinuous FGE activity assay on peptide substrate (RP-HPLC); assay type: biochemical
Protocol: [formula] where Et is the total enzyme in solution, and kcat and KM are the standard enzymatic parameters specified by the STRENDA commission. Units of enzyme specific activity are the katal, where 1 kat=1 mol·s^−1. Kinetic parameters were determined from nonlinear regression of [substrate] v. initial velocity using GraphPad prism.
The specific activity of FGE was measuring using a discontinuous enzymatic activity assay. The substrate for FGE was a 14 amino acid peptide containing the consensus sequence (H2N-[…]-COOH (SEQ ID NO:8)). The rate of reaction was determined by integrating the peak area at 215 nm of the starting material (Cys) and product (fGly) containing peptides on reversed-phase HPLC. The identity of product (and side product) peaks were determined by RP-HPLC MS/MS. Each aqueous reaction solution (60 μL) contained substrate peptide (100 μM), FGE (1 μM), DTT (1 mM), and buffer (25 mM triethanolamine, pH 9). A single time course consisted of 5 data points collected every 2 minutes. The reaction was initiated upon addition of FGE stock solution and vortexing for 3 s. Time points were quenched by diluting 10 μL of reaction mixture into 1 μL of 1 M HCl by hand with a micropipettor. After completion of the reaction, each time point was analyzed by RP-HPLC.
(§1) Substrate, product, and side products of the FGE substrate peptide […] (SEQ ID NO:8) were separated on RP-HPLC over 7 min with isocratic 18% MeCN in water containing 0.1% TFA. The integrated area of the fGly (2.1 min), Cys (3.3 min), βME-DS (3.6 min), and Cys-DS (6.2 min) forms of the substrate were used to calculate total area and each fraction thereof.
The specific activity of FGE was measured using a discontinuous enzymatic activity assay. The substrate for FGE was a 14 amino acid peptide containing the CXPXR consensus sequence ([…] (SEQ ID NO:8)). The rate of reaction was determined by integrating the peak areas at 215 nm of the substrate cysteine (Csub) and product (fGly) peptides on reversed-phase HPLC. The identities of product (and side product) peaks were determined by RP-HPLC MS/MS (see below). Each aqueous reaction solution (120 μL) contained Csub (100 μM), FGE (0.1-1 μM), DTT (1 mM), and buffer (25 mM TEAM, pH 9). A single time course included 5 data points collected at evenly spaced intervals. The reaction was initiated upon addition of FGE stock solution and vortexing for 3 s. The reaction vial was vortexed at 1,500 RPM and 25° C. in a thermomixer R (Eppendorf). Time points were hand quenched by adding 20 μL of reaction mixture to 2 μL of 1 M HCl using a micropipettor. After completion of the reaction, each time point was analyzed by RP-HPLC (see below).
as §1, with “integrated areas” for “integrated area”, “min), Csub” for “min), Cys”, “min), the Csub/βME disulfide (Csub-βME, 3.6” for “min), βME-DS (3.6”, “and substrate/substrate disulfide (Csub-Csub, 6.1” for “and Cys-DS (6.2”
Individual FGE reactions were initiated by rapidly mixing FGE into a premixed buffered solution of Csub and reducing agent. It was assumed that all buffered solutions contained oxygen at ˜270 μM at 25° C. (based upon Henry's law). Time points were chemically quenched by hand with HCl. […]. The identities of both the Cys- and fGly-containing peptides were confirmed by LC-MS/MS (FIG. 11). These assignments were then correlated with HPLC retention times (FIG. 14, panel a). The integrated peak areas of substrate and product were used to calculate the initial velocity of FGE (FIG. 14, panel b) using the method described by Boeker (Biochem. J., (1984), 223, 15; and Biochem. J., (1985), 226, 29).

[4] = nonlinear regression to Michaelis-Menten equation

Protocol for SQR: A Western blotting was performed on lysates from cells treated with Cu^2+ or not treated with Cu^2+, using antibodies against SQR to determine whether Cu^2+ increased the levels of SQR. […] Experiments were also performed to test whether overexpression of SQR in Expi cells could be a substitute for Cu^2+ in increasing conversion.

Molecule: O=C(O)CN(CCN(CC(=O)O)CC(=O)O)CC(=O)O [EDTA, Ethylenediaminetetraacetic acid]
- effect of pretreatment of activated enzyme on catalytic activity (Hs-cFGE; copper-treated Hs-cFGE, EDTA 5 molar equiv or KCN): did not change
- effect of pretreatment of activated enzyme on specific activity (Sc-FGE): do not change; also recorded: did not change

Molecule: O=S(=O)([O-])[O-].[Cu+2] [Cu^2+, copper(II) sulfate]
- effect on conversion (CT-1.1 tagged Her2): enhances conversion
- cell viability (CHO cells): does not significantly change
- levels of SQR (SQR): No significant difference

Molecule: OO [H2O2, hydrogen peroxide]
- effect on product formation when added directly to the reaction (FGE; additive in the in vitro FGE reaction mixture): halted the reaction

Molecule: OCCS [βME, β-mercaptoethanol]
- thiol-disulfide exchange rate constant k [1]: 1
- rate of product formation (FGE): 5.07 min⁻¹

Molecule: O[C@H](CS)[C@H](O)CS (racemic) [DTT, dithiothreitol]
- effect of treatment on specific activity (Hs-cFGE; 20 mM reducing agent on activated Hs-cFGE): unchanged specific activity
- thiol-disulfide exchange rate constant k [1]: 6×10^5
- rate of product formation (FGE): 3.27 min⁻¹
- effect of pretreatment of activated enzyme on specific activity (Sc-FGE; activated Sc-FGE, reductant and/or chelator, 15 mM each, 1 h, 37° C.): do not change
- effect of pretreatment on specific activity (Sc-FGE; excess (100 molar equiv), 1 h at 25° C., reagent removed by gel filtration): did not change

Molecule: O=C(O)CCP(CCC(=O)O)CCC(=O)O [TCEP, tris(carboxyethyl)phosphine]
- effect of treatment on specific activity (Hs-cFGE): unchanged specific activity
- effect of pretreatment of activated enzyme on specific activity (Sc-FGE): do not change

Molecule: C=C(C)[C@H]1Cc2c(ccc3c2O[C@@H]2COc4cc(OC)c(OC)cc4[C@@H]2C3=O)O1 [rotenone, Rotenone]
- effect on conversion (human FGE): no effect on conversion
- ATP production (ATP production): affected ATP production as expected

B1: Hs-cFGE: catalytic core of H. sapiens FGE with C-terminal His6 tag (SEQ ID NO. 11), expressed in Hi5 insect cells (protein)
chain: DRSLEANAPGPVPGERQLAHSKMVPIPAGVFTMGTDDPQIKQDGEAPARRVTIDAFYMDAYEVSNTEFEKFVNSTGYLTEVAAAPWWLPVKGANWRHPEGPDSTILHRPDHPVLHVSWNDAVAYCTWAGKRLPTEAEWEYSCRGGLHNRLFPWGNKLQPKGQHYANIWQGEFPVTNTGEDGFQGTAPVDAFPPNGYGLYNIVGNAWEWTSDWWTVHHSVEETLNPKGPPSGKDRVKKGGSYMCHRSYCYRYRCAARSQNTPDSSASNLGFRCAADRLPTMDKGENLYFQGHHHHHH
- fGly content in the antibody ([2]; after in vitro conversion): 95-100%
- conversion yield from Cys to fGly ([2]; in vitro conversion of aldehyde tagged mAb): 90-100% and > 90%
- increase of specific activity on activation ([3]; 5 molar equiv of CuSO4, 1 h at 25° C., activated vs as purified): 3
- specific activity ([3]; after activation with 5 molar equiv of CuSO4, 1 h at 25° C., excess copper removed): 3,050±115 pkat·mg^−1
- specific activity ([3]; as purified from cell culture, not activated): 1,143 pkat·mg^−1 and 1,143±84 pkat·mg^−1
- efficiency relative to bacterial counterpart (Sc-FGE) ([3]; from kcat/KM): approximately 10 fold
- Km [3, 4]: 340 nM
- kcat [3, 4]: 6.06 min⁻¹

Source: patent US11655492B2, “Activated formylglycine-generating enzymes and methods of producing and using the same” (R.P. Scherer Technologies, LLC, priority 2015, dated 2023)
